Test results: patent US11331299B2, “Medicinal use of serrulatane diterpenes” (The University of Sydney, priority 2016, dated 2022)
pEC50, pIC50: −log10 of the molar value. Read-outs that look alike come from different tables or passages of the source.

Test system: 280 human cancer cell lines
Assay: OncoPanel cell proliferation assay (10-day)
Assay type: cell-based
Conditions: Homo sapiens; for pEC50: read-out: Cell Count EC50; for GI50: read-out: Cell Count GI50; for pIC50: read-out: Cell Count IC50
[1] = NCI-H292, NCI-H292, Lung - NSCLC
[2] = NCI-H295R, Endocrine - Adrenal gland
[3] = NCI-H441, NCIH441, Lung - NSCLC
[4] = NCI-H460, NCI-H460, Lung - NSCLC
[5] = NCI-H520, NCI-H520, Lung - NSCLC
[6] = NCI-H596, NCI-H596, Lung - NSCLC
[7] = NCI-H661, NCI-H661, Lung - NSCLC
[8] = NTERA-2-cl-D1, NTERA-2 cl.D1, Testis
[9] = OVCAR-3, OVCAR3, Female GU - Ovary
[10] = RPMI-7951, RPMI-7951, Skin (Melanoma)
[11] = SAOS-2, SaOS2, Soft Tissue - Osteosarcoma

CC(C)=CCC[C@@H]1C(O)Oc2c(C)cc(O)c3c2[C@H]1CC[C@H]3C (some centres unmarked) [Compound 2, 5,18-epoxyserrulat-14-en-8,18-diol]
pEC50 [1]: 4.78 | GI50 [1]: 16.6 µM | pIC50 [1]: 4.78 | pEC50 [2]: < 4.52 | GI50 [2]: > 30 µM | pIC50 [2]: < 4.52 | pEC50 [3]: < 4.52 | GI50 [3]: > 30 µM | pIC50 [3]: < 4.52 | pEC50 (NCI-H446, NCIH446, Lung - SCLC): 5.01 | GI50 (NCI-H446, NCIH446, Lung - SCLC): 9.77 µM | pIC50 (NCI-H446, NCIH446, Lung - SCLC): 5.01 | pEC50 [4]: 5.25 | GI50 [4]: 5.91 µM | pIC50 [4]: 5.23 | pEC50 (NCI-H508, NCI-H508, Colon): < 4.52 | GI50 (NCI-H508, NCI-H508, Colon): > 30 µM | pIC50 (NCI-H508, NCI-H508, Colon): < 4.52 | pEC50 [5]: 5.04 | GI50 [5]: 9.17 µM | pIC50 [5]: 5.04 | pEC50 [6]: 4.92 | GI50 [6]: 14.4 µM | pIC50 [6]: 4.82 | pEC50 [7]: 5.02 | GI50 [7]: 9.51 µM | pIC50 [7]: 5.02 | pEC50 (NCI-H747, NCI-H747, Colon): 4.91 | GI50 (NCI-H747, NCI-H747, Colon): > 30 µM | pIC50 (NCI-H747, NCI-H747, Colon): < 4.52 | pEC50 [8]: 4.90 | GI50 [8]: 12.3 µM | pIC50 [8]: 4.90 | pEC50 (OCUG-1, OCUG-1, Liver): < 4.52 | GI50 (OCUG-1, OCUG-1, Liver): 29.9 µM | pIC50 (OCUG-1, OCUG-1, Liver): < 4.52 | pEC50 (OE19, OE19, Head and Neck): < 4.52 | GI50 (OE19, OE19, Head and Neck): > 30 µM | pIC50 (OE19, OE19, Head and Neck): < 4.52 | pEC50 (OE21, OE21, Head and Neck): < 4.52 | GI50 (OE21, OE21, Head and Neck): > 30 µM | pIC50 (OE21, OE21, Head and Neck): < 4.52 | pEC50 [9]: 4.84 | GI50 [9]: 13.7 µM | pIC50 [9]: 4.84 | pEC50 (PA-1, Female GU - Ovary): 4.94 | GI50 (PA-1, Female GU - Ovary): 16.2 µM | pIC50 (PA-1, Female GU - Ovary): 4.79 | pEC50 (PANC-1, PANC-1, Pancreas): 5.15 | GI50 (PANC-1, PANC-1, Pancreas): 7.01 µM | pIC50 (PANC-1, PANC-1, Pancreas): 5.15 | pEC50 (PC-3, Prostate): 4.92 | GI50 (PC-3, Prostate): 11.8 µM | pIC50 (PC-3, Prostate): 4.92 | pEC50 (PFSK-1, PFSK-1, CNS - Glioma): 4.83 | GI50 (PFSK-1, PFSK-1, CNS - Glioma): 14.6 µM | pIC50 (PFSK-1, PFSK-1, CNS - Glioma): 4.83 | pEC50 (PSN1, PSN-1, Pancreas): 4.92 | GI50 (PSN1, PSN-1, Pancreas): 12 µM | pIC50 (PSN1, PSN-1, Pancreas): 4.92 | pEC50 (RD, Soft Tissue - Sarcoma): 5.53 | GI50 (RD, Soft Tissue - Sarcoma): 2.96 µM | pIC50 (RD, Soft Tissue - Sarcoma): 5.53 | pEC50 (RKO, Colon): 5.14 | GI50 (RKO, Colon): 7.92 µM | pIC50 (RKO, Colon): 5.10 | pEC50 (RKOE6, RKOE6, Colon): 5.16 | GI50 (RKOE6, RKOE6, Colon): 6.93 µM | pIC50 (RKOE6, RKOE6, Colon): 5.16 | pEC50 (RPMI-6666, RPMI 6666, Lymphoma): 4.98 | GI50 (RPMI-6666, RPMI 6666, Lymphoma): 10.7 µM | pIC50 (RPMI-6666, RPMI 6666, Lymphoma): 4.97 | pEC50 [10]: 5.24 | GI50 [10]: 6.13 µM | pIC50 [10]: 5.21 | pEC50 (RPMI-8226, RPMI 8226, Myeloma): 5.69 | GI50 (RPMI-8226, RPMI 8226, Myeloma): 1.95 µM | pIC50 (RPMI-8226, RPMI 8226, Myeloma): 5.69 | pEC50 (RS4-11, RS4, 11, Leukemia): 5.19 | GI50 (RS4-11, RS4, 11, Leukemia): 6.3 µM | pIC50 (RS4-11, RS4, 11, Leukemia): 5.19 | pEC50 (Raji, Lymphoma): 5.09 | GI50 (Raji, Lymphoma): 8.04 µM | pIC50 (Raji, Lymphoma): 5.09 | pEC50 (Ramos, Ramos (RA 1), Lymphoma): 5.36 | GI50 (Ramos, Ramos (RA 1), Lymphoma): 4.39 µM | pIC50 (Ramos, Ramos (RA 1), Lymphoma): 5.36 | pEC50 [11]: 4.80 | GI50 [11]: 15.1 µM | pIC50 [11]: 4.80 | pEC50 (SCC-4, SCC-4, Head and Neck): < 4.52 | GI50 (SCC-4, SCC-4, Head and Neck): > 30 µM | pIC50 (SCC-4, SCC-4, Head and Neck): < 4.52 | pEC50 (SCC-9, SCC-9, Head and Neck): 4.57 | GI50 (SCC-9, SCC-9, Head and Neck): 27.3 µM | pIC50 (SCC-9, SCC-9, Head and Neck): 4.56 | pEC50 (SCC-25, SCC-25, Head and Neck): < 4.52 | GI50 (SCC-25, SCC-25, Head and Neck): > 30 µM | pIC50 (SCC-25, SCC-25, Head and Neck): < 4.52 | pEC50 (SCaBER, Bladder): 4.94 | GI50 (SCaBER, Bladder): 11.4 µM
